According to ChEMBL document CHEMBL4507276 (2021):

Assays:
[1] = target: Protein kinase C theta type (Homo sapiens) (UniProt Q04759); conditions: Compound concentration 1000.0 nM
[2] = target: 5-hydroxytryptamine receptor 6 (Homo sapiens) (UniProt P50406); conditions: Compound concentration 10.0 uM
[3] = target: Ribosomal protein S6 kinase alpha-5 (Homo sapiens) (UniProt O75582); conditions: Compound concentration 1000.0 nM
[4] = target: Small conductance calcium-activated potassium channel protein 1 (Rattus norvegicus) (UniProt P70606); test: K+/CA+/R Cerep selectivity data (BI); conditions: Compound concentration 20.0 uM
[5] = target: T1, Serine/threonine-protein kinase 4 (Homo sapiens) (UniProt Q13043); test: STK4 Invitrogen selectivity data (BI); conditions: Compound concentration 3.0 uM
T1 sequence (whole entry): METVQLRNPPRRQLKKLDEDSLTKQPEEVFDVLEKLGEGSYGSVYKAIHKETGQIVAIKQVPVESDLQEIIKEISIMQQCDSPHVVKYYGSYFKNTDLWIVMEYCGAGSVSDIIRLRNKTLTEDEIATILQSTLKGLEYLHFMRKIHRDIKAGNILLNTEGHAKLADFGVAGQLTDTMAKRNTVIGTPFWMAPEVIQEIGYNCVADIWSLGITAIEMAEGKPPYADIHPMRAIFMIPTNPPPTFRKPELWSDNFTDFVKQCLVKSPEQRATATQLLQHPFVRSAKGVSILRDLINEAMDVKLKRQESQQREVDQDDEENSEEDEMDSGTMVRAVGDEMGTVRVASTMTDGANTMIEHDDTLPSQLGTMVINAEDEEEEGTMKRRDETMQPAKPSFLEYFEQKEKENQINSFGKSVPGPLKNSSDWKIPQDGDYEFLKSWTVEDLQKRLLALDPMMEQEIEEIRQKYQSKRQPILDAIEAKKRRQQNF

[6] = target: Calcium/calmodulin-dependent protein kinase type II subunit alpha (Homo sapiens) (UniProt Q9UQM7); test: CAMK2A Invitrogen selectivity data (BI); conditions: Compound concentration 3.0 uM
[7] = target: Ribosomal protein S6 kinase alpha-3 (Homo sapiens) (UniProt P51812); test: RPS6KA3 Invitrogen selectivity data (BI); conditions: Compound concentration 3.0 uM
[8] = target: Calcium/calmodulin-dependent protein kinase type 1D (Homo sapiens) (UniProt Q8IU85); test: CAMK1D Invitrogen selectivity data (BI); conditions: Compound concentration 3.0 uM
[9] = target: T2, Muscarinic acetylcholine receptor M2 (Homo sapiens) (UniProt P08172); test: M2/HU Eurofins-Panlabs selectivity data (BI); conditions: Compound concentration 10.0 uM
T2 sequence (whole entry): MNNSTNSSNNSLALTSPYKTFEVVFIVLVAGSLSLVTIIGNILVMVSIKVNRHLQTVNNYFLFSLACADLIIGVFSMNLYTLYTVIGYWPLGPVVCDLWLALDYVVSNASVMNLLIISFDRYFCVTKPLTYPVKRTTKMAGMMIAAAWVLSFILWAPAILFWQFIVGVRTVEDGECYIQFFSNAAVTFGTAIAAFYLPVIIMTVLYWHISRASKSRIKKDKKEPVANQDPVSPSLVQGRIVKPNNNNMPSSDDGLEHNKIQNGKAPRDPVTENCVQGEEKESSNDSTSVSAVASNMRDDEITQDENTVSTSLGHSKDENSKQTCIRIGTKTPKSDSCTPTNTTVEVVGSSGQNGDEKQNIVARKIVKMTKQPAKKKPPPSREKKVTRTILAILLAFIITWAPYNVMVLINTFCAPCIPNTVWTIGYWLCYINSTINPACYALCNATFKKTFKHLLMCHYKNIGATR

[10] = target: T3, Serine/threonine-protein kinase Sgk1 (Homo sapiens) (UniProt O00141); test: SGK Invitrogen selectivity data (BI); conditions: Compound concentration 3.0 uM
T3 sequence (whole entry): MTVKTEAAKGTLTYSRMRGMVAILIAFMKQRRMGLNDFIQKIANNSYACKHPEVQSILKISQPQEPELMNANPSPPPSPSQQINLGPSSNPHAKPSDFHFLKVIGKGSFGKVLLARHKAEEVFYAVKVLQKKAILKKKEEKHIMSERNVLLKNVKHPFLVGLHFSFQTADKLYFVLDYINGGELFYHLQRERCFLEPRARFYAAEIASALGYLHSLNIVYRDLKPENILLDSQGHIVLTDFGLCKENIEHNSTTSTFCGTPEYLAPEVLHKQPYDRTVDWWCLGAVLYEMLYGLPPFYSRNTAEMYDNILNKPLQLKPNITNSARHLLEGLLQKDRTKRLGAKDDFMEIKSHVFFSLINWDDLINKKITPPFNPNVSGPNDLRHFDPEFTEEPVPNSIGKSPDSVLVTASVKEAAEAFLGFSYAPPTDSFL

[11] = target: Ribosomal protein S6 kinase alpha-4 (Homo sapiens) (UniProt O75676); test: RPS6KA4 Invitrogen selectivity data (BI); conditions: Compound concentration 3.0 uM
[12] = target: T4, Mitogen-activated protein kinase kinase kinase 7 (Homo sapiens) (UniProt O43318); test: MAP3K7_K7IP1 Invitrogen selectivity data (BI); conditions: Compound concentration 3.0 uM
T4 sequence (whole entry): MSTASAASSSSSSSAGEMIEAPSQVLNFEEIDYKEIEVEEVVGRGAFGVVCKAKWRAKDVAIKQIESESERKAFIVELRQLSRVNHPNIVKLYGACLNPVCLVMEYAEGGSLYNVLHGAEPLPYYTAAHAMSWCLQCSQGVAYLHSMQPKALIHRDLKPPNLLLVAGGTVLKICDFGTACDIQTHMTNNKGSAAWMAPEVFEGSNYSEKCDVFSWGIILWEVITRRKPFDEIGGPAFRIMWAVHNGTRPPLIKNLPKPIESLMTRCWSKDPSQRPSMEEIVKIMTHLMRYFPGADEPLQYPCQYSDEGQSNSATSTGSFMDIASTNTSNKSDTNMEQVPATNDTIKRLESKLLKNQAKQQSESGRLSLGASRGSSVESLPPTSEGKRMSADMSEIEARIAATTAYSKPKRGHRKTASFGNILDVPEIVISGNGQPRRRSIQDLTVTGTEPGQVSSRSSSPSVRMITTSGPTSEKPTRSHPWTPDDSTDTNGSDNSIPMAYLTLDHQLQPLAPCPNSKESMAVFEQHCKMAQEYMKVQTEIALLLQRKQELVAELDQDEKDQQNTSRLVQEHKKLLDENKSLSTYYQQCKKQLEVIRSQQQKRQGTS

[13] = target: Rho-associated protein kinase 2 (Homo sapiens) (UniProt O75116); test: ROCK2 Invitrogen selectivity data (BI); conditions: Compound concentration 3.0 uM
[14] = target: Urotensin-2 receptor (Homo sapiens) (UniProt Q9UKP6); test: UT1/H AG Cerep selectivity data (BI); conditions: filed as agonist, Compound concentration 20.0 uM
Caspase-3 (Homo sapiens) = Caspase-3 (Homo sapiens) (UniProt P42574); test: CASPASE-3 Cerep selectivity data (BI); conditions: Compound concentration 20.0 uM
Chain of Caspase-3 (Homo sapiens) (P42574 29-175 limits assumed): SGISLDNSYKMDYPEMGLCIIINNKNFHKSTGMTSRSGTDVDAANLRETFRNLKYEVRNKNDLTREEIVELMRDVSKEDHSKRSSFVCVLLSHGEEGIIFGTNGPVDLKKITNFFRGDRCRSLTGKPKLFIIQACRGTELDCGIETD
Chain of Caspase-3 (Homo sapiens) (P42574 176-277 limits assumed): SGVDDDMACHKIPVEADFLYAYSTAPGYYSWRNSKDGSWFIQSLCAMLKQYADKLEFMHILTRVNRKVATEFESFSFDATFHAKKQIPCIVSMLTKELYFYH

Chain of Calcium/calmodulin-dependent protein kinase type II subunit alpha (Homo sapiens) (Q9UQM7 whole entry): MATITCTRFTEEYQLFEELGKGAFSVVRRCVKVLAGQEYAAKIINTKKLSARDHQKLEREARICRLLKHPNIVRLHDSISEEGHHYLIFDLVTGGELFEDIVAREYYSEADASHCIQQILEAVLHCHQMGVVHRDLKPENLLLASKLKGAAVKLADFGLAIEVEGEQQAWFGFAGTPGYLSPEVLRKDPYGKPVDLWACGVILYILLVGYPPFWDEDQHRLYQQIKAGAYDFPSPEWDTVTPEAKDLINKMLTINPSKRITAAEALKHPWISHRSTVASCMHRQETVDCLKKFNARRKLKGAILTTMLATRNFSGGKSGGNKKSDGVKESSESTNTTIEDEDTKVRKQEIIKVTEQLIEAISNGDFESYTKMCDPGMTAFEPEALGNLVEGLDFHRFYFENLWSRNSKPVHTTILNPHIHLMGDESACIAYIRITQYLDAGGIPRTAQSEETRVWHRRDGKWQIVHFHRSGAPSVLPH
Chain of Small conductance calcium-activated potassium channel protein 1 (Rattus norvegicus) (P70606 whole entry): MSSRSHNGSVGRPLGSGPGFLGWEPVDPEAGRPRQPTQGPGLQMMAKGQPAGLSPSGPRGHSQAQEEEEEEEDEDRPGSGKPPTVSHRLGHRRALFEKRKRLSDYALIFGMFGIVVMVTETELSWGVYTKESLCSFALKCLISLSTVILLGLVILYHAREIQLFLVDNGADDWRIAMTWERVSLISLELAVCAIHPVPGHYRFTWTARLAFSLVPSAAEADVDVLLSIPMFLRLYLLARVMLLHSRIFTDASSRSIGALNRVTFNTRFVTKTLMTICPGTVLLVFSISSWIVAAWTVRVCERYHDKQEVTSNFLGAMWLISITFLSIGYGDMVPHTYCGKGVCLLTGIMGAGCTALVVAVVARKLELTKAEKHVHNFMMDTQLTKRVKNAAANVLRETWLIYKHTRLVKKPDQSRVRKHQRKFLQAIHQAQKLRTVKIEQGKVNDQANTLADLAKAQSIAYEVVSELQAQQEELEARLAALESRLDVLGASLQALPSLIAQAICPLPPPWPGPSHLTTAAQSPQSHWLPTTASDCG
Chain of Protein kinase C theta type (Homo sapiens) (Q04759 whole entry, looked up): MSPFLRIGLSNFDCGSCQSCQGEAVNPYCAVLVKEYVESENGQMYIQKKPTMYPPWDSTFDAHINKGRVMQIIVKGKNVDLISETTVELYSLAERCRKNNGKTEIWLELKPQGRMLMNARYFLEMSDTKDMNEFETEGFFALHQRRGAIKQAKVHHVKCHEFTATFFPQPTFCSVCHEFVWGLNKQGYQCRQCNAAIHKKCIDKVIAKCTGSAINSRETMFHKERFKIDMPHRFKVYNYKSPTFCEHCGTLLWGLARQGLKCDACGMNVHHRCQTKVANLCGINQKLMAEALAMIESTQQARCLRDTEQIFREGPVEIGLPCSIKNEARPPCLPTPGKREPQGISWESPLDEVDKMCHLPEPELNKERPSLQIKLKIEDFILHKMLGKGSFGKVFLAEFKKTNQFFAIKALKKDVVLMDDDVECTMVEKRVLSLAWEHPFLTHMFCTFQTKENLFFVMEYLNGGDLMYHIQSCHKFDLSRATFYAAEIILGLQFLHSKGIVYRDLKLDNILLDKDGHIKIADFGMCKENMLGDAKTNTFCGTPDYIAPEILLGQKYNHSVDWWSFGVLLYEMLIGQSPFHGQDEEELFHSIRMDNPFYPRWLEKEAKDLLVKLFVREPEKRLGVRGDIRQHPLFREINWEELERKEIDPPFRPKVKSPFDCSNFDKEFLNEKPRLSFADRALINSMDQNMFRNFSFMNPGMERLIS
Chain of Ribosomal protein S6 kinase alpha-4 (Homo sapiens) (O75676 whole entry, looked up): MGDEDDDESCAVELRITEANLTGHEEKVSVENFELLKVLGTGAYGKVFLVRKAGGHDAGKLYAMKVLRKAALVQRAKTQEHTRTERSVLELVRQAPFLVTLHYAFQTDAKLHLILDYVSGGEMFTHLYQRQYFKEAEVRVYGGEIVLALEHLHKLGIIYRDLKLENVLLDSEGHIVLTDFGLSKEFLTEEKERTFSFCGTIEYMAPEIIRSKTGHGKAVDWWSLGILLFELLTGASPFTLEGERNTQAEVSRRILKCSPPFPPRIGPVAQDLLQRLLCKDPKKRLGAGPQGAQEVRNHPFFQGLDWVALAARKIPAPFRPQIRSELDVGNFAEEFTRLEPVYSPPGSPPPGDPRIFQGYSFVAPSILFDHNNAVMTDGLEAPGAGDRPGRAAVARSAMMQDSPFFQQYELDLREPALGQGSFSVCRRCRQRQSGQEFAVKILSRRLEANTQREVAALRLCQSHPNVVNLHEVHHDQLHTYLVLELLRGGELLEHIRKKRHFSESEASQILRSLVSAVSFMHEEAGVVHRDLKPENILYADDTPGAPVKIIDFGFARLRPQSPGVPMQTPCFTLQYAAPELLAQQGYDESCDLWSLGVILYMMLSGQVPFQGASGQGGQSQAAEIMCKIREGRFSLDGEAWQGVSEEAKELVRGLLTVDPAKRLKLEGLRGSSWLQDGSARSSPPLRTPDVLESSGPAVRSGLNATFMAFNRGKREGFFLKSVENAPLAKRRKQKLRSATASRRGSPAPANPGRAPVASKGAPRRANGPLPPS
Chain of Ribosomal protein S6 kinase alpha-5 (Homo sapiens) (O75582 whole entry, looked up): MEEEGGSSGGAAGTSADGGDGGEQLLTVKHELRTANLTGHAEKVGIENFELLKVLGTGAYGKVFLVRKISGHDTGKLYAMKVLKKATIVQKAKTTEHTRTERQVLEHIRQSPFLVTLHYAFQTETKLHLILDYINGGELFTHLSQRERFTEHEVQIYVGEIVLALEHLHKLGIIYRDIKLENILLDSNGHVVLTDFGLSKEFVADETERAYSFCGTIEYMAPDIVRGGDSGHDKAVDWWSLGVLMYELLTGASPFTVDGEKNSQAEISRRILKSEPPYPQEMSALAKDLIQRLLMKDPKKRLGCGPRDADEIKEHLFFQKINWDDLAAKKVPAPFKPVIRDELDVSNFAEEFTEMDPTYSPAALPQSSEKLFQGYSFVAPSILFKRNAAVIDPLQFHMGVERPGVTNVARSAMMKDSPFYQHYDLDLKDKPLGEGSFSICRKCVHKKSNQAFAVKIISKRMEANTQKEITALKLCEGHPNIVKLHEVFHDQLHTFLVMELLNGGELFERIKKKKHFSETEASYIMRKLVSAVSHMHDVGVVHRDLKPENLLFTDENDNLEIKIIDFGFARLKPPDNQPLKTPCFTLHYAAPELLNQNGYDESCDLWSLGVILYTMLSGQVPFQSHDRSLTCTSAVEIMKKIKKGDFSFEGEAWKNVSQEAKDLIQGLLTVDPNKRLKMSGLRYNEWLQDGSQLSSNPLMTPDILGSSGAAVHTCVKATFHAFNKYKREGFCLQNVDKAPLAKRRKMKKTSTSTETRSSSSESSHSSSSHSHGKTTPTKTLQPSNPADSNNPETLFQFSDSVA
Chain of 5-hydroxytryptamine receptor 6 (Homo sapiens) (P50406 whole entry): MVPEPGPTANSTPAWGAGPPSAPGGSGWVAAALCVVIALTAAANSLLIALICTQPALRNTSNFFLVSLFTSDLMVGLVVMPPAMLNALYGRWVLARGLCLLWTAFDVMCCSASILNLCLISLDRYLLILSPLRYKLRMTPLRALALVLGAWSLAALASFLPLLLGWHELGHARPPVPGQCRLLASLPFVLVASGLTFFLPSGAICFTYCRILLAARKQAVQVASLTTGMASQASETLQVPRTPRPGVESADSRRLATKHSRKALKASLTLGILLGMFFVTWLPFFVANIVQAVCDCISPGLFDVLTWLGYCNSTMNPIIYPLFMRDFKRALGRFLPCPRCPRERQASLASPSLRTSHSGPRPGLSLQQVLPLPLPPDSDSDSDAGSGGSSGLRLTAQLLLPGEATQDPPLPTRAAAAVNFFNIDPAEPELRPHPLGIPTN
Chain of Urotensin-2 receptor (Homo sapiens) (Q9UKP6 whole entry): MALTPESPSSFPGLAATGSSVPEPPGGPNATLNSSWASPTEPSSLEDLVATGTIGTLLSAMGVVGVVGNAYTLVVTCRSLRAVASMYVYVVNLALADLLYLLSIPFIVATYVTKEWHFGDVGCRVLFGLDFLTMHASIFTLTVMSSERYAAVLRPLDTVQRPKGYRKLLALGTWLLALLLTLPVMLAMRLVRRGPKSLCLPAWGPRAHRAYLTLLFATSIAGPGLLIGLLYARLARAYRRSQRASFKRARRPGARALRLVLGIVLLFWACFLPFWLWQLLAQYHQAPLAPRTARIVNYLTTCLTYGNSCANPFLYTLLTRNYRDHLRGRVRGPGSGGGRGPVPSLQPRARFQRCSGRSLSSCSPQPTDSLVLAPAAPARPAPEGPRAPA
Chain of Calcium/calmodulin-dependent protein kinase type 1D (Homo sapiens) (Q8IU85 whole entry, looked up): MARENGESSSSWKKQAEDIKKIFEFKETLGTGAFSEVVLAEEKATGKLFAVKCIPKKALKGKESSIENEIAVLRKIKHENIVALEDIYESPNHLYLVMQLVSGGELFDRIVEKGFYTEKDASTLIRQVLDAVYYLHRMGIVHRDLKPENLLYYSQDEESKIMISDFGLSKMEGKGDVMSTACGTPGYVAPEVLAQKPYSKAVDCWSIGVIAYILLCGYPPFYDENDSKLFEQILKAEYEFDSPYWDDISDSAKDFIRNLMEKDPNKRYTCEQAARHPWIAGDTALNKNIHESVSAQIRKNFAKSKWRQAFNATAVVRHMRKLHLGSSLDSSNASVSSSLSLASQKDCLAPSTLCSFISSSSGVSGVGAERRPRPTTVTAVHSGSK

CN(C)C(=O)Cn1cc(-c2nc(C3(c4ccc(-c5cnc(N)nc5)cc4)CC3)no2)cn1 [BI 0153]
inactive: residual activity [1] 89% | inhibition [2] -7.48% | residual activity [3] 67%

CN(C)C(=O)Cn1cc(-c2nc([C@@](C)(c3ccc(-c4cnc(N)nc4)cc3)C3CC3)no2)cn1 [BI 665915]
inactive: residual activity [4] 88% | residual activity [5] 99% | residual activity [6] 103% | residual activity [7] 105% | residual activity [8] 96% | residual activity [9] 98% | residual activity [10] 99% | residual activity [11] 103% | residual activity [12] 87% | residual activity [13] 102% | residual activity [14] 99% | residual activity (Caspase-3 (Homo sapiens)) 98%
